Measurements as given in PubChem BioAssay AID330 (DTP/NCI, 2004).
Where “and” joins values, the source holds several entries; their conditions need not be identical. Equal values may be shown once. Toxic doses and inconclusive results are not listed. Rule for the calls: active = survival T/C of 150% or more; inactive = T/C below 125% in these data.

Test system: P388 leukemia ip, CD2F1 mice, survival T/C
Experiment: NCI In Vivo Anticancer Drug Screen. Data for tumor model P388 Leukemia (intraperitoneal) in CD2F1 (CDF1) mice
Conditions: endpoint: median survival time, higher = longer survival
In short: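 Mice carrying the transplanted tumor received test compound or vehicle. Survival was recorded in each group, and the value is the treated-group measurement divided by that of the vehicle-treated control group.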

[1] = dose: 100.0 mg/kg/injection, schedule: Q04DX003 (ip), vehicle: saline with Tween-80
[2] = dose: 50.0 mg/kg/injection, schedule: Q01DX005 (ip), vehicle: saline with Tween-80
[3] = dose: 100.0 mg/kg/injection, schedule: Q01DX005 (ip), vehicle: saline with Tween-80
[4] = dose: 200.0 mg/kg/injection, schedule: Q01DX005 (ip), vehicle: saline with Tween-80
[5] = dose: 12.5 mg/kg/injection, schedule: Q01DX009 (ip), vehicle: saline with Tween-80
[6] = dose: 25.0 mg/kg/injection, schedule: Q01DX009 (ip), vehicle: saline with Tween-80
[7] = dose: 100.0 mg/kg/injection, schedule: Q01DX009 (ip), vehicle: saline with Tween-80
[8] = dose: 50.0 mg/kg/injection, schedule: Q01DX009 (ip), vehicle: Klucel (hydroxypropylcellulose) (HPC)
[9] = dose: 100.0 mg/kg/injection, schedule: Q01DX009 (ip), vehicle: Klucel (hydroxypropylcellulose) (HPC)
[10] = dose: 200.0 mg/kg/injection, schedule: Q01DX009 (ip), vehicle: Klucel (hydroxypropylcellulose) (HPC)
[11] = dose: 12.5 mg/kg/injection, schedule: Q01DX005 (ip), vehicle: saline with Tween-80
[12] = dose: 25.0 mg/kg/injection, schedule: Q01DX005 (ip), vehicle: saline with Tween-80
[13] = dose: 60.0 mg/kg/injection, schedule: Q01DX005 (ip), vehicle: saline with Tween-80
[14] = dose: 120.0 mg/kg/injection, schedule: Q01DX005 (ip), vehicle: saline with Tween-80
[15] = dose: 240.0 mg/kg/injection, schedule: Q01DX005 (ip), vehicle: saline with Tween-80
[16] = dose: 50.0 mg/kg/injection, schedule: Q01DX005 (ip), vehicle: Klucel (hydroxypropylcellulose) (HPC)
[17] = dose: 100.0 mg/kg/injection, schedule: Q01DX005 (ip), vehicle: Klucel (hydroxypropylcellulose) (HPC)
[18] = dose: 200.0 mg/kg/injection, schedule: Q01DX005 (ip), vehicle: Klucel (hydroxypropylcellulose) (HPC)

Measured: T/C

COc1cccc2c1C(=O)c1c(O)c3c(c(O)c1C2=O)C[C@@](O)(/C(CO)=N/NC(=O)c1ccc(Cl)c(Cl)c1)C[C@@H]3OC1CC(NC(=S)Nc2ccc(F)cc2)C(O)C(C)O1 (stereo partly specified)
inactive: dose: 0.1 mg/kg/injection, schedule: Q01DX009 (ip), vehicle: water 99 % of control | dose: 0.2 mg/kg/injection, schedule: Q01DX009 (ip), vehicle: water 113 % of control | dose: 0.4 mg/kg/injection, schedule: Q01DX009 (ip), vehicle: water 109 % of control | dose: 0.8 mg/kg/injection, schedule: Q01DX009 (ip), vehicle: water 111 % of control | dose: 12.5 mg/kg/injection, schedule: Q01DX009 (ip), vehicle: water 94 % of control | dose: 25.0 mg/kg/injection, schedule: Q01DX009 (ip), vehicle: water 91 % of control and 94 % of control | dose: 50.0 mg/kg/injection, schedule: Q01DX009 (ip), vehicle: water 91 % of control | dose: 100.0 mg/kg/injection, schedule: Q01DX009 (ip), vehicle: water 92 % of control

CN(C)C(=S)NCc1ccccc1
inactive: [1] 100 % of control | dose: 200.0 mg/kg/injection, schedule: Q04DX003 (ip), vehicle: saline with Tween-80 100 % of control

C/C(=N\NC(=S)Nc1nccs1)c1ccc2ccccc2n1
inactive: [2] 102 % of control | [3] 100 % of control | [4] 113 % of control

Cc1cc(=O)[nH]c(N/N=C/c2c(O)ccc3ccccc23)n1
inactive: [5] 93 % of control | [6] 88 % of control | dose: 50.0 mg/kg/injection, schedule: Q01DX009 (ip), vehicle: saline with Tween-80 87 % of control | [7] 102 % of control

O=C1C2CCC(C2)[CH]1[Hg][Cl] (stereo unspecified)
inactive: dose: 6.25 mg/kg/injection, schedule: Q01DX009 (ip), vehicle: saline with Tween-80 107 % of control | [5] 112 % of control | [6] 88 % of control

Cc1ccc2c(c1)sc1n[nH]c(=S)n12
inactive: [8] 100 % of control | [9] 100 % of control | [10] 100 % of control

CCCCNP1(NCCCC)=NP(NCCCC)(NCCCC)=NP(NCCCC)(NCCCC)=NP(NCCCC)(NCCCC)=N1
inactive: [11] 106 % of control | [12] 116 % of control | [3] 88 % of control

COc1ccc(CCN(C)CCCC(C#N)(c2ccc(OC)c(OC)c2)C(C)C)cc1OC (stereo unspecified)
inactive: dose: 1.0 mg/kg/injection, schedule: Q02HX018 (sc), vehicle: water 99 % of control | dose: 2.0 mg/kg/injection, schedule: Q02HX018 (sc), vehicle: water 99 % of control | dose: 4.0 mg/kg/injection, schedule: Q02HX006 (sc), vehicle: saline with Tween-80 100 % of control | dose: 4.0 mg/kg/injection, schedule: Q02HX018 (sc), vehicle: water 103 % of control | dose: 8.0 mg/kg/injection, schedule: Q02HX006 (sc), vehicle: saline with Tween-80 96 % of control | dose: 8.0 mg/kg/injection, schedule: Q02HX018 (sc), vehicle: water 110 % of control | dose: 8.0 mg/kg/injection, schedule: Q03HX006 (ip), vehicle: saline 104 % of control | dose: 16.0 mg/kg/injection, schedule: Q02HX006 (sc), vehicle: saline with Tween-80 106 % of control | dose: 16.0 mg/kg/injection, schedule: Q02HX018 (sc), vehicle: water 108 % of control | dose: 16.0 mg/kg/injection, schedule: Q03HX006 (ip), vehicle: saline 101 % of control | dose: 32.0 mg/kg/injection, schedule: Q02HX006 (sc), vehicle: saline with Tween-80 82 % of control | dose: 32.0 mg/kg/injection, schedule: Q03HX006 (ip), vehicle: saline 103 % of control | dose: 64.0 mg/kg/injection, schedule: Q02HX006 (sc), vehicle: saline with Tween-80 19 % of control

CN(C)C1C(=O)C(C(=O)NCN2CCOB(c3ccccc3)OCC2)=C(O)C2(O)C(O)=C3C(=O)C4C(O)=CC=CC4C(C)(O)C3CC12 (stereo unspecified)
inactive: dose: 12.5 mg/kg/injection, schedule: Q04DX002 (ip), vehicle: saline 101 % of control | dose: 25.0 mg/kg/injection, schedule: Q04DX002 (ip), vehicle: saline 105 % of control | dose: 50.0 mg/kg/injection, schedule: Q04DX002 (ip), vehicle: saline 108 % of control

Nc1ccc(N=C2C=CC(=O)C=C2)c(N)c1
inactive: dose: 12.5 mg/kg/injection, schedule: Q01DX009 (ip), vehicle: saline 102 % of control and 90 % of control | dose: 25.0 mg/kg/injection, schedule: Q01DX009 (ip), vehicle: saline 103 % of control and 112 % of control | dose: 50.0 mg/kg/injection, schedule: Q01DX009 (ip), vehicle: saline 105 % of control | dose: 100.0 mg/kg/injection, schedule: Q01DX009 (ip), vehicle: saline 112 % of control

C[N+]1(Cc2ccc(C(N)=O)cc2)CCC(CCC2CC[N+](C)(Cc3ccc(C(N)=O)cc3)CC2)CC1 (stereo unspecified)
inactive: dose: 0.78 mg/kg/injection, schedule: Q01DX005 (ip), vehicle: saline with Tween-80 93 % of control | dose: 1.56 mg/kg/injection, schedule: Q01DX005 (ip), vehicle: saline with Tween-80 101 % of control | dose: 3.13 mg/kg/injection, schedule: Q01DX005 (ip), vehicle: saline with Tween-80 90 % of control

CC(=O)/C=C/c1ccccc1
inactive: dose: 25.0 mg/kg/injection, schedule: Q01DX009 (ip), vehicle: Klucel (hydroxypropylcellulose) (HPC) 103 % of control | [8] 101 % of control | [9] 101 % of control | [7] 108 % of control | [10] 103 % of control | dose: 200.0 mg/kg/injection, schedule: Q01DX009 (ip), vehicle: saline with Tween-80 109 % of control | dose: 400.0 mg/kg/injection, schedule: Q01DX009 (ip), vehicle: saline with Tween-80 119 % of control | dose: 600.0 mg/kg/injection, schedule: Q01DX009 (ip), vehicle: saline with Tween-80 117 % of control

COc1ccc2c(c1OC)C(=O)OC2C1c2cc3c(cc2CC[N+]1(C)C)OCO3 (stereo unspecified)
inactive: dose: 12.5 mg/kg/injection, schedule: Q01DX001 (ip), vehicle: Klucel (hydroxypropylcellulose) (HPC) 88 % of control | dose: 25.0 mg/kg/injection, schedule: Q01DX001 (ip), vehicle: Klucel (hydroxypropylcellulose) (HPC) 92 % of control | dose: 50.0 mg/kg/injection, schedule: Q01DX001 (ip), vehicle: Klucel (hydroxypropylcellulose) (HPC) 87 % of control

CNC(=S)C(N)CCCC1NC(=S)N(C)C1=O (stereo unspecified)
inactive: [13] 99 % of control | [14] 89 % of control | [15] 88 % of control

C[C@]12CC[C@H]3[C@@H](CC=C4C[C@@H](O)CC[C@@]43C)[C@@H]1CC[C@@H]2N(CCO)CCO
inactive: [16] 96 % of control | [17] 100 % of control | [18] 97 % of control

CCC1(C)COC(=O)C1=C(C(=O)OC)C(=O)OC (stereo unspecified)
inactive: dose: 100.0 mg/kg/injection, schedule: Q04DX003 (ip), vehicle: saline 112 % of control | dose: 200.0 mg/kg/injection, schedule: Q04DX003 (ip), vehicle: saline 113 % of control | dose: 400.0 mg/kg/injection, schedule: Q04DX003 (ip), vehicle: saline 105 % of control

COc1ccc(CNNc2ccc(NC(C)=O)cc2N)cc1
inactive: dose: 25.0 mg/kg/injection, schedule: Q04DX003 (ip), vehicle: saline with Tween-80 90 % of control | dose: 50.0 mg/kg/injection, schedule: Q04DX003 (ip), vehicle: saline with Tween-80 88 % of control | [1] 105 % of control

O=C(Cc1cccc2c(=O)cc(-c3ccccc3)oc12)OCCO
inactive: dose: 25.0 mg/kg/injection, schedule: Q01DX005 (ip), vehicle: Klucel (hydroxypropylcellulose) (HPC) 100 % of control | [16] 103 % of control and 91 % of control | [17] 100 % of control and 110 % of control | [18] 120 % of control

COc1ccc2c(c1)C13CCCCC1C(C2)N(C)CC3 (stereo unspecified)
inactive: [11] 94 % of control | [12] 100 % of control | [2] 100 % of control | dose: 50.0 mg/kg/injection, schedule: Q01DX005 (ip), vehicle: saline 99 % of control

COc1ccc(S(=O)(=O)c2coc3ccc(C)cc3c2=O)cc1
inactive: [13] 100 % of control | [14] 96 % of control | [15] 95 % of control

CCOC(=O)N1c2ccccc2C(c2ccccc2)=NC1(C#N)CC (stereo unspecified)
inactive: [2] 96 % of control | [3] 96 % of control | [4] 97 % of control
